Drawing on patent EP1198477B1, “PROLACTIN-RELEASING PEPTIDE AND USE IN TREATING PAIN” (Oy Juvantia Pharma Ltd, priority 1999, dated 2001), this text covers arterial pressure for one compound.

The structures appear in SMILES notation.

The test system of the assay is Rats. Briefly: Blood pressure measurements after i.v. injections. Type of assay: in vivo. Conditions: in the same animals, dose not stated.

As for `CNC[C@H](O)c1cccc(O)c1` [phenylephrine], the arterial pressure entry is “clear increase in pressure”.
